Test results: patent US20090104122A1, “DETECTION OF MEMBRANE ANDROGEN RECEPTOR (mAR) AGENTS” (priority 2006, published 2009)
Numbered stars: 1 amine (or outer) side, 2 acyl side, 3 side chain; on linkers, the order of the positions; unused ones are H or OH. Bridge positions count the residues as written; N and C are the ends. Square brackets hold non-standard residues; d marks the D form. Peptide text beside a SMILES is read from it. ξ: configuration not given here. ξTrp(2-yl) = O=C(C(Cc1c([*:3])[nH]c2ccccc12)N[*:1])[*:2]; X1 = CC(O)(CO)CC(N[*:1])C(=O)[*:2]; ξAsp(3ξ-OH) = NC(C(=O)O)C(O)C(=O)O; Hyp = O=C(O)[CH]1C[CH](O)CN1

Tests used:
[1] = system: DU145 cells; assay: Quantitative measurement of apoptosis (APOPercentage Apoptosis Assay); format: cell-based, human; details: for effect on testo-BSA induced apoptotic response: DU145 cells, signaling inhibitors; for effect on apoptotic response of DU145 cells treated with Testo-BSA: 10^-6 M, agents blocking actin reorganization
From the text: In order to analyze a possible cross-talk between actin cytoskeleton reorganization and apoptosis upon mABS activation, we studied the apoptotic response of DU145 cells in the presence of specific agents blocking actin reorganization. […] The FACS analysis fully supported these observations. […] This assumption is in line with previously published data, showing that actin reorganization is an important signaling step, regulating NFkB translocation and transcriptional regulation of TNFα induced anti-apoptotic response (Papakonstanti and Stounaras, Mol Biol Cell, 2004).
The APOPercentage Apoptosis Assay (Biocolor Ltd., Belfast, N. Ireland) was used to quantify apoptosis, according to manufacturer's instructions. This kit uses a dye that stains red the apoptotic cells undergoing the membrane “flip-flop” event when phosphatidylserine is translocated to the outer leaflet. Detection of apoptosis can be readily observed under inverted microscopy. For apoptosis quantitation, the amount of dye within the labeled cells can subsequently be released into solution and the concentration measured at a wavelength of 550 nm (reference filter 620 nm) using a color filter microplate […] (Dynatech MicroElisa reader Chantilly, Va.).

[2] = system: DU145 cells; assay: Immunoblot analysis of Triton-soluble and insoluble actin (actin polymerization); format: cell-based, human; details: DU145 cells activated with testosterone-BSA
From the text: There has been recognition that activation of mAR sites in LNCaP human prostate cancer cells results within minutes, in a significant rearrangement of the actin cytoskeleton, as indicated by the potent actin polymerization and microfilament reorganization (Kampa et al 2002). Using both, non-permeable testosterone analogs and specific inhibitors or antagonists of the intracellular androgen receptors (iAR), we provided strong evidence that in LNCaP cells this phenomenon was induced through the activation of the mARs. […] These quantitative results were fully supported by confocal laser scanning microscopic analysis of the actin cytoskeleton in testo-BSA treated DU145 cells. Indeed, a complete submembranous redistribution of the microfilamentous structures became evident within 10 minutes and persisted for at least 2 hours, as shown in FIGS. 3A-C.
The Triton-soluble proteins were precipitated with equal amounts of 6% perchloric acid (PCA). The Triton-insoluble fractions were precipitated with 1 ml of 3% PCA. Equal volumes of each fraction were subjected to SDS electrophoresis and proteins were transferred to a nitrocellulose membrane, using the LKB electrophoresis apparatus (LKB, Bromma, Sweden). […] Blots were developed using the enhanced chemiluminescence system, and the band intensities were quantitated by PC-based image analysis (Image Analysis, Inc., Ontario, Canada).

[3] = system: LNCAP cells; assay: Induction of apoptosis in LNCaP cells; format: cell-based, human
From the text: (§1) This contact induced significant actin remodelling followed by a decrease in cell migration, adhesion and invasion. […] Activation of the pathway induced signaling and actin reorganization. The pathway is not activated in LNCAP cells. […] This effect was not observed with the anti-androgen flutamide.

[4] = system: DU-145 cells; assay: Cell migration, adhesion and invasion after mAR activation; format: cell-based, human
From the text: as §1

[5] = system: RhoA; assay: RhoA activation after mAR activation; format: cell-based, human; details: 10^-7 M, DU145 cells
From the text: Looking for an alternative mechanism mediating the non-genomic testosterone signaling in DU145 cells we analyzed a possible rapid activation of Rho-GTPase's. Indeed, among the signaling effectors that regulate such processes of actin reorganization, the best understood are small GTPases of the Rho family. Classically, plasma membrane receptors activate specific guanine exchange factors (GEFs) often via phosphorylation, which leads to subsequent loading of Rho GTPases with GTP. Active Rho GTPases continue signal transmission towards Rho coiled-coiled kinase 1 (ROCK1) and/or p21-activated kinase 1 (Pak1). Activated […] phosphorylate and activate Lim-kinases 1 and 2 (Limk1 and Limk2) respectively. Limk1 and Limk2 are closely related proteins composed of two N-terminal Lim domains and a C-terminal kinase domain. The Lim domains are protein-binding motifs frequently found in cytosolic proteins that interact with the actin cytoskeleton. Eventually, Limk1 and Limk2 phosphorylate actin-depolymerizing proteins such as cofilin and actin-depolymerizing factor (ADF), which are inactivated and thus permit actin polymerization to occur. […] To further analyze the downstream effector of RhaA activation, DU145 cells, activated with testo-BSA were treated with the specific ROCK inhibitor Y27632 and actin redistribution was documented quantitatively using the G/Total-actin ratio.

[6] = system: prostate-specific antigen (PSA); details: within minutes; cited from earlier work
[7] = system: LNCaP-inoculated nude mice; assay: In vivo tumor growth in LNCaP-inoculated nude mice; details: 8 mg/kg weight for one month, compared to control animals
[8] = system: FAK/PI-3K/Rac1 pathway; assay: FAK/PI-3K/Rac1 signaling after mAR activation; format: cell-based, human; details: DU145 cells, FAK constitutively phosphorylated
From the text: Indeed, as shown in FIGS. 5A-B, FAK was constitutively phosphorylated in DU145 cells. […] These findings imply the existence of an alternative non-genomic signaling cascade regulating the rapid actin reorganization shown in FIGS. 2A-B.

In the case of `COC[C@H]1OC(=O)c2coc3c2[C@@]1(C)C1=C(C3=O)[C@@H]2CCC(=O)[C@@]2(C)C[C@H]1OC(C)=O` [wortmannin], the “effect on testo-BSA induced apoptotic response” value [1] is reported as “no effect” and the “effect on testosterone-induced rapid actin polymerization” value [2] is reported as “no effect”.

For `C=C1[C@@H](C)[C@H]2[C@H](Cc3ccccc3)NC(=O)[C@]23OC(=O)/C=C/[C@H](O)CCC[C@@H](C)C/C=C/[C@H]3[C@@H]1O` [cytochalasin B], the “effect on apoptotic response of DU145 cells treated with Testo-BSA” value [1] was “clear inhibition”.

For `C[C@@H](N)[C@H]1CC[C@H](C(=O)Nc2ccncc2)CC1` [Y27632], the “effect on testo-BSA induced apoptotic response” value [1] was “abrogating” and the “effect on testosterone-induced rapid actin polymerization” value [2] was “totally inhibited”.

For `CC1NC(=O)C2CC(O)CN2C(=O)C2CSc3[nH]c4ccccc4c3CC(NC1=O)C(=O)NC(CC(C)(O)CO)C(=O)NC(C(C)C)C(=O)NC(C(O)C(=O)O)C(=O)N2` (stereo not drawn) [phallacidin] (cyclo([ξAsp(3ξ-OH)]C[Hyp]A[ξTrp(2-yl)][X1]V); thioether 2-5; configuration not given here), the “effect on apoptotic response of DU145 cells treated with Testo-BSA” value [1] was “clear inhibition”.

For “testosterone 3-(O-carboxymethyl)oxime:BSA [testosterone-BSA]”, the induction of apoptosis [3] was “induced apoptosis”, the “cell migration, adhesion and invasion” value [4] was “decrease” and the induction of apoptosis [1] was “induced apoptosis”. The “persistence of RhoA activation” value [5] was “up to two hours”, the “time of maximum RhoA activation” value [5] was 30 min and the “time to activation of RhoA” value [5] was no more than 3 min. For the same compound, the “secretion of prostate-specific antigen (PSA)” value [6] was “increase”, the reduction of tumor-size [7] was 60% and the FAK phosphorylation [8] was “neither apparent additional FAK phosphorylation could be documented”.
